Experiments:
Assay type in all cases: cell-based
Conditions in all cases: after 10, 20, 40 and 60 min at all dilutions 1:100, 1:200, 1:400, 1:800
Staphylococcus aereus = test: Antimicrobial testing by agar dilution, Staphylococcus aereus
Experimental: (§1) The antimicrobial properties of the 4-[4,4-bis(4-bromophenyl)-2,5-dioxoimidazolidin-1-yl]butanoic acid were studied by the method of agar dilution. Test solutions of each compound was prepared in concentration of 1% using dimethylformamide as a solvent then they are diluted in physiological solution to obtain the final experimental dilutions 1:100, 1:200, 1:400, 1:800. The effect of these substances are compared with furacillin in a controlable study. The testing microbes used were gram positive bacteria Staphylococcus aereus, gram negative bacteria Escherichia coli, Pseudomonas aeruginosa and Candida albicans fungi were taken. The experiments used for this survey were meat-pentonlu agar (EPA) for cultivation of bacteria and Saburo environment for fungi. Each experiment used 1 ml of test solution on each plate 500 min. Add 2 drops of emulsified with microbes feel. All experimental samples were taken from the agar after 10, 20, 40, 60 minutes in the environment on the basis of Patrk planted. Bacteria were cultivated at a temperature of 37° C. for 1 day and the mushroom was kept in a thermostat for […] at a temperature of 28° C. in the. Then results were checked.

Escherichia coli = test: Antimicrobial testing by agar dilution, Escherichia coli
Experimental: as §1

Pseudomonas aeruginosa = test: Antimicrobial testing by agar dilution, Pseudomonas aeruginosa
Experimental: as §1

Candida albicans = test: Antimicrobial testing by agar dilution, Candida albicans fungi
Experimental: as §1

Measured: inhibition activity (summary in words)

O=C(O)CCCN1C(=O)C(c2ccc(Br)cc2)(c2ccc(Br)cc2)NC1=S [4-[4,4-bis(4-bromophenyl)-5-oxo-2-thioxoimidazolidin-1-yl]butanoic acid]
higher inhibition activity: all assays above

Source: patent US12180169B1, “4-[4,4-bis(4-bromophenyl)-5-oxo-2-thioxoimidazolidin-1-yl]butanoic acid as an antimicrobial compound” (KING FAISAL UNIVERSITY, priority 2023, dated 2024)
